Source: the NIST ThermoML archive (doi:10.1016/j.fluid.2010.07.005)

Experiments:
[1] = excess molar enthalpy (molar enthalpy of mixing); xn = mol fraction of the nth substance listed; conditions: 298.15 K, 101.33 kPa, Liquid, Flow calorimetry
[2] = molar heat capacity at constant pressure; xn = mol fraction of the nth substance listed; conditions: 101.33 kPa, Liquid, Vacuum adiabatic calorimetry
[3] = xn = mol fraction of the nth substance listed; conditions: 101.33 kPa, Liquid; for viscosity: Capillary tube (Ostwald / Ubbelohde) method; for mass density: Speicific gravity balance

COP(=O)([O-])OC.Cn1cc[n+](C)c1 [1,3-dimethylimidazolium dimethylphosphate] + O
[1]
Conditions	excess molar enthalpy [kJ/mol]
x1 = 0.104	-4.7
x1 = 0.209	-5.92
x1 = 0.369	-6.43
x1 = 0.498	-6.05
x1 = 0.604	-5.37
x1 = 1	0

Conditions	mass density, [3] [kg/m3]	molar heat capacity at constant pressure, [2] [J/K/mol]	viscosity, [3] [mPa·s]
298.15 K, x1 = 0.21	–	116.48	–
298.15 K, x1 = 0.252	1233.4	–	40.02
298.15 K, x1 = 0.375	–	143.19	–
298.15 K, x1 = 0.428	1241.5	–	74.43
298.15 K, x1 = 0.57	–	197.42	–
298.15 K, x1 = 0.617	1248.5	–	145.21
298.15 K, x1 = 0.795	1253.6	–	197.92
298.15 K, x1 = 0.821	–	255.8	–
298.15 K, x1 = 1	1258.7	282.83	271.86
303.15 K, x1 = 0.21	–	124.21	–
303.15 K, x1 = 0.252	1231	–	32.61
303.15 K, x1 = 0.375	–	151.23	–
303.15 K, x1 = 0.428	1239.4	–	55.22
303.15 K, x1 = 0.57	–	205.75	–
303.15 K, x1 = 0.617	1245.8	–	110.23
303.15 K, x1 = 0.795	1250.5	–	138.81
303.15 K, x1 = 0.821	–	267.68	–
303.15 K, x1 = 1	1255.9	296.61	188.3
308.15 K, x1 = 0.252	1227.9	–	24.46
308.15 K, x1 = 0.428	1236.2	–	43.51
308.15 K, x1 = 0.617	1241.8	–	82.04
308.15 K, x1 = 0.795	1247.2	–	104.59
308.15 K, x1 = 1	1253	–	139.49
313.15 K, x1 = 0.21	–	147.96	–
313.15 K, x1 = 0.252	1224	–	20.28
313.15 K, x1 = 0.375	–	167.21	–
313.15 K, x1 = 0.428	1233.6	–	35.23
313.15 K, x1 = 0.57	–	220.8	–
313.15 K, x1 = 0.617	1239.3	–	66.13
313.15 K, x1 = 0.795	1243.9	–	80.27
313.15 K, x1 = 0.821	–	284.76	–
313.15 K, x1 = 1	1249.1	310.83	110.25
318.15 K, x1 = 0.252	1220.8	–	16.97
318.15 K, x1 = 0.428	1230.5	–	27.92
318.15 K, x1 = 0.617	1236.1	–	51.66
318.15 K, x1 = 0.795	1241.1	–	63.01
318.15 K, x1 = 1	1245.2	–	84.44
323.15 K, x1 = 0.21	–	171.34	–
323.15 K, x1 = 0.252	1216.8	–	14.5
323.15 K, x1 = 0.375	–	182.63	–
323.15 K, x1 = 0.428	1226.2	–	23.63
323.15 K, x1 = 0.57	–	232.9	–
323.15 K, x1 = 0.617	1232.9	–	41.92
323.15 K, x1 = 0.795	1236.8	–	50.35
323.15 K, x1 = 0.821	–	298.31	–
323.15 K, x1 = 1	1241.5	321.05	69.99
